# Structures can show the parent of a compound that is named as a salt.
# Columns and labels:
# [1] = target: T1, His-tagged human Aurora A (Homo sapiens, UniProt O14965); assay: Aurora A inhibitory activity (IMAP fluorescence polarization phosphorylation assay); assay type: biochemical; details: 20 μM ATP, 100 nM peptide substrate, 30° C. for 120 minutes
# T1 construct: His (N); made in house; host or cells: Escherichia coli BL21-CodonPlus(DE3)-RIL
# T1 sequence (O14965 1-403): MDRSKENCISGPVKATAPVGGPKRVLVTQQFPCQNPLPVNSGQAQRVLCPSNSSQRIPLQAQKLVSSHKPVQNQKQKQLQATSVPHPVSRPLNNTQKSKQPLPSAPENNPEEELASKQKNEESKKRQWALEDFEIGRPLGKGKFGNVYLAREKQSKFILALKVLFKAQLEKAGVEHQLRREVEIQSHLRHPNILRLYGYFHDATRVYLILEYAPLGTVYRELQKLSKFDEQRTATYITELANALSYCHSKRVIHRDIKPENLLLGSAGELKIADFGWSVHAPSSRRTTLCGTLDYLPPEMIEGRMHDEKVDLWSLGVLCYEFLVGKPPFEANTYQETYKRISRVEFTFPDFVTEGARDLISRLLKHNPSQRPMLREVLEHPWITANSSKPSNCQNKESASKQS
# Source text: cDNA of N-terminal His-tagged human Aurora A was integrated into an expression vector, which was then highly expressed in Escherichia coli BL21-CodonPlus(DE3)-RIL cells. The Escherichia coli was harvested and lysed, and then the His-tagged human Aurora A protein was applied onto a nickel chelate column and eluted from the column with imidazole. The active fractions were desalted with a desalting column to give a purified enzyme.
# For measurement of the activity of Aurora A, the substrate used was a synthetic peptide (5-FAM (5-carboxyfluorescein)-γ-aminobutyric acid-Ala-Leu-Arg-Arg-Ala-Ser-Leu-Gly-NH2) (SEQ.ID.NO.:1), which was purchased from Toray Research Center, Inc.
# For the phosphorylation reaction, the method by Upstate, Inc. [Kinase Profiler™ Assay Protocols] was referred to, and phosphorylation of the substrate was detected using IMAP® technology (Molecular Devices, Co. Ltd.) (Gaudet E W. et. al, J. Biomol. Screen, 8, 164-175(2003)). Concretely, the phosphorylation reaction and the detection were carried out as follows:
# The phosphorylation reaction was conducted using 384 well plate, and the reaction volume was 10 μl/well. The reaction buffer is comprised of 50 mM Tris-chloride buffer (pH 7.4), 15 mM magnesium acetate, and 0.2 mM ethylenediamine-N,N,N′,N′-tetraacetic acid (EDTA). Thereto, the purified Aurora A protein, 100 nM of the peptide substrate, and 20 μM of adenosine 5′-triphosphate (ATP) were added, and then the reaction was carried out at 30° C. for 120 minutes.
# Thereafter, in order to terminate and detect the reaction, 30 μl of the IMAP (registered trademark) binding reagent (IMAP Progressive Binding Reagent, R7284) that had been diluted (1:400) in the lx IMAP binding buffer A (IMAP Progressive Binding Buffer A, 5× stock, R7282) was added to each well. The solution stood still for 60 minutes in the dark, and then fluorescence polarization was measured using a high-end microplate reader (excitation wavelength: 485 nm; emission wavelength: 520 nm).
# (§1) The compound to be tested was added to the reaction system such that a dilution series of the compound in dimethylsulfoxide (DMSO) was prepared, and then 0.5 μL of this solution was added for the testing to each well. Each control well was provided by adding 0.5 μL of DMSO to the well in place of the DMSO solution containing the compound to be tested.
# (§2) Using the above method (in the measurement of activity of Aurora B, Method A was used), the results for measurement of the activities of Aurora A and Aurora B were obtained as shown in Table 1. […] Similar results are obtained when Method B is used in the measurement of activity of Aurora B.
# [2] = target: T2, GST-tagged human Aurora B(AurB)/His-tagged human INCENP complex proteins (Homo sapiens, UniProt Q96GD4); assay: Aurora B inhibitory activity, Method A (IMAP assay development kit); assay type: biochemical; details: 40 μM ATP, 100 nM substrate, 25° C. for 45 minutes
# T2 construct: GST; purchased Curia Biosciences, Inc
# T2 sequence (Q96GD4 whole entry): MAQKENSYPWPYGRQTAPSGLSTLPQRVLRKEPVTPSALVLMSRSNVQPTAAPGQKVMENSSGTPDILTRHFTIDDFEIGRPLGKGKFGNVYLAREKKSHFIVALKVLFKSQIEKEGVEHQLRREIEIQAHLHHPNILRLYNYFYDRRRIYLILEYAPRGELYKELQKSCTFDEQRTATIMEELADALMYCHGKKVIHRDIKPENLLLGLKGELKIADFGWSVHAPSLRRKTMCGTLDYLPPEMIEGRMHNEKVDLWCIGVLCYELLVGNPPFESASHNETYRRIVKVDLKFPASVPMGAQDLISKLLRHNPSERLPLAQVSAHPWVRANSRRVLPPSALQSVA
# T2 sequence (Q9NQS7 803-916 partner limits assumed): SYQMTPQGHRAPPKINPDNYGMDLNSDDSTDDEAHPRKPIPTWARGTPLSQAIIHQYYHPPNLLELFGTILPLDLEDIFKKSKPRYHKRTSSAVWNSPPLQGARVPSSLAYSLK
# Experimental: An assay development kit for IMAP (registered trademark) (Aurora B), purchased from Curia Biosciences, Inc., was used for phosphorylation reaction, and the phosphorylation of a substrate was detected using the IMAP technology. The assay development kit used is comprised of an assay buffer, GST-tagged human Aurora B(AurB)/His-tagged human INCENP complex proteins (amino acid sequence: 803-916, AAU04398.1), and an ATP/substrate solution. Using the same, the phosphorylation reaction was conducted in accordance with a partially revised protocol attached to the kit, and then the phosphorylation of the substrate was detected using the IMAP technology.
# For the phosphorylation reaction, 384 well plate was used, and the reaction volume was 10 μl/well. The composition of the reaction buffer (assay buffer) is comprised of 20 mM of HEPES buffer (pH 7.4), 0.01% Tween-20, and 2 mM of dithiothreitol (DTT). Thereto, AurB/INCENP complex protein, 100 nM of the substrate, and 40 μM of ATP, and 1 mM of magnesium salt were added, and then the reaction was conducted at 25° C. for 45 minutes. Thereafter, in order to terminate and detect the reaction, 30 μl of the IMAP (registered trademark) binding reagent (IMAP Progressive Binding Reagent, R7284) that had been diluted (1:400) in the lx IMAP binding buffer A (IMAP Progressive Binding Buffer A, 5× stock, R7282) was added to each well. The solution stood still for 60 minutes in the dark, and then fluorescence polarization was measured using a high-end microplate reader (excitation wavelength: 485 nm; emission wavelength: 520 nm).
# as §1, with “DMSO” for “dimethylsulfoxide (DMSO)”
# as §2
IC50 [1] [nM],IC50 [2] [nM],Structure (SMILES)
< 0.3,350,"Cc1cc(Nc2cc(C3CC3)[nH]n2)nc(N2C[C@@H](CC(=O)O)C[C@@H](C3CCCCC3)C2)n1 (stereo in doubt) [Example 24, [(3R*,5S*)-5-cyclohexyl-1-{4-[(3-cyclopropyl-1H-pyrazol-5-yl)amino]-6-methylpyrimidin-2-yl}piperidin-3-yl]acetic acid]"
2.4,1150,"Cc1cc(Nc2cc(C3CC3)[nH]n2)nc(N2C[C@@H](C(=O)O)C[C@@H](C3CCCCC3)C2)n1 (stereo in doubt) [Example 20, (3S*,5S*)-5-cyclohexyl-1-{4-[(3-cyclopropyl-1H-pyrazol-5-yl)amino]-6-methylpyrimidin-2-yl}piperidine-3-carboxylic acid trifluoroacetate]"
4,2680,"Cc1cc(Nc2cc(C3CC3)[nH]n2)nc(N2C[C@H](CC(=O)O)C[C@H](C3CCCCC3)C2)n1 (stereo in doubt) [Example 23, [(3S*,5R*)-5-cyclohexyl-1-{4-[(3-cyclopropyl-1H-pyrazol-5-yl)amino]-6-methylpyrimidin-2-yl}piperidin-3-yl]acetic acid]"
0.81,275,"Cc1cc(Nc2cc(C3CC3)[nH]n2)nc(N2C[C@H](C(=O)O)C[C@H](C3CCCCC3)C2)n1 (stereo in doubt) [Example 21, (3R*,5R*)-5-cyclohexyl-1-{4-[(3-cyclopropyl-1H-pyrazol-5-yl)amino]-6-methylpyrimidin-2-yl}piperidine-3-carboxylic acid trifluoroacetate]"
1.1,6620,"Cc1cc(Nc2cc[nH]n2)nc(N2C[C@H](C(=O)O)C[C@H](C3CCCCC3)C2)n1 (relative stereo) [Example 13, cis-5-cyclohexyl-1-[4-methyl-6-(1H-pyrazol-5-ylamino)pyrimidin-2-yl]piperidine-3-carboxylic acid trifluoroacetate]"
7.8,7910,"Cc1cc(Nc2cc[nH]n2)nc(N2C[C@H](C(=O)O)C[C@H](c3ccccc3)C2)n1 (relative stereo) [Example 10, cis-1-[4-methyl-6-(1H-pyrazol-5-ylamino)pyrimidin-2-yl]-5-phenylpiperidine-3-carboxylic acid trifluoroacetate]"

Structure (SMILES),IC50 [1] [nM],IC50 [2] [nM]
"Cc1cc(Nc2cc[nH]n2)nc(N2C[C@H](NC(=O)OC(C)(C)C)C[C@@H](C(=O)O)C2)n1 (relative stereo) [Example 6, trans-5-[(tert-butoxycarbonyl)amino]-1-[4-methyl-6-(1H-pyrazol-5-ylamino)pyrimidin-2-yl]piperidine-3-carboxylic acid]",55,> 10000
"Cc1cc(Nc2cc[nH]n2)nc(N2C[C@@H](NC(=O)OC(C)(C)C)C[C@@H](C(=O)O)C2)n1 (relative stereo) [Example 8, cis-5-[(tert-butoxycarbonyl)amino]-1-[4-methyl-6-(1H-pyrazol-5-ylamino)pyrimidin-2-yl]piperidine-3-carboxylic acid]",9.1,7390

# — US8367690B2, “Aminopyridine derivatives having aurora a selective inhibitory action” (Vertex Pharmaceuticals Inc., priority 2009, dated 2013)
